Laboratory results: patent publication US20250002843A1, “DERIVATION OF NAÏVE BOVINE EMBRYONIC STEM CELLS” (The Semex Alliance, priority 2021, published 2025)

System: ZP-free bovine embryo
Experiment: Bovine embryo attachment and outgrowth derivation (attachment, TE growth, ICM growth) in culture media
Type: cell-based
Conditions: for effect on derivation efficiency on substitution in t2iLGöY media: bovine IL-6 10 ng/ml for human LIF, CGP77675 2 uM for PD0325901
Description: The protocol for coating was as follows: • 1. 4 drops of 50 μL of coating solution: 0.1% gelatin or different concentrations of EHS-ECM, provided as a 100× concentrated solution, were applied onto Nunc surface 35 mm^2 cell culture dish (see FIG. 1). • 2. Coated substrates were incubated in a humidified 5% CO2 incubator at 38.5° C. for 1 hour. • 3. After incubation, excess coating solution was removed, 50 uL of cell culture media was applied to the coated area, covered with 4 mL of mineral oil, and 50 ul of additional media was added into each drop. • 4. Media was allowed to equilibrate in a humidified 5% O2, 5% CO2 incubator at 38.5° C. for 2 hours. • 5. After ZP removal and adaptation of embryos, 1 embryo was placed into 1 micro culture drop to start outgrowth derivation. • 6. First attachment rate was determined at 48 hours of outgrowth culture and first media change was done right after first attachment determination. • 7. Attachment rate and outgrowth rate were evaluated every day and media were changed right after daily evaluation.
The protocol for generating LbL ECM coated substrate was as follows: • 1. 40 ul of 0.1% Gelatin type A (diluted with DMEM/F12 basal medium) was applied to the surface of a Nunc 35 mm^2 cell culture dish to make small drops. • 2. The dish was incubated in a humidified 5% CO2 incubator at 38.5° C. for 1 hour. • 3. After incubation, the gelatin solution was removed and 50 ul of DPBS with Ca^2+ and Mg^2+ was added to wash excess gelatin from drops, followed by removal using aspiration. The washing step was repeated 2 times more. • 4. 50 ul of 1×EHS-ECM was applied to the gelatin coated area and incubated in a humidified 5% CO2 incubator at 38.5° C. for 1 hour. • 5. After incubation, EHS-ECM solution was removed, and 50 ul of media was applied; drops were covered with 4 ml of mineral oil, and 50 ul of additional media was added into each drop. • 6. The media was allowed to equilibrate in 5% CO2 incubator for 2 hours.
• 1. Thawing media and outgrowth media was mixed at a 1:1 ratio. • 2. After post-thaw recovery, embryos were washed twice in adaptation media (1:1 ratio of thawing media (e.g. embryo handling media and outgrowth media (e.g. DMEM))) before being put in the adaptation drop in the Dish #1 (FIG. 10). • 4. After 1 hour of adaptation, embryos were then washed four times by transferring to washing drops (outgrowth media) in the Dish #2. • 5. Embryos were then moved to the outgrowth media (DMEM) for plating. • 6. Adapted embryos were then plated into LbL coated micro drop.
FBS (10091, Gibco™), Knock-out Serum Replacement (10828-10, Gibco™), Serum Replacement (S0638, Sigma), B27 supplement (17504-044, Gibco™), and N2 supplement (17502-048, Gibco™) were used for this test. Traditional mouse 2iL media (DMEM/F12+1% MEM non-essential amino acid+2 mM Glutamax+100 µM beta-mercaptoethanol+100 IU penicillin/streptomycin+growth factors/inhibitors including 3 µM CHIR99021, 1 μM PD0325901 and 100 ng/ml LIF) was used as a basal medium for the serum tests of 10% FBS and 20% KOSR, and 1×-, 2×-SR groups. t2iLGöY media (1:1 mixture of DMEM/F12 and neurobasal medium+1% MEM non-essential amino acid+2 mM Glutamax+50 μg/ml BSA, fraction V+100 μM beta-mercaptoethanol+100 IU penicillin/streptomycin+growth factors/inhibitors including 1 μM CHIR99021, 1 μM PD0325901, 10 μM Y27632, 2.5 μM Gö6983 and 10 ng/ml LIF) was used for the testing of N2B27 group. […]

In the case of `COc1ccc2c(c1)c(C1=C(c3c[nH]c4ccccc34)C(=O)NC1=O)cn2CCCN(C)C` [Gö6983], the “derivation efficiency on addition in t2iLGoY” value (side-by-side with 2i, 2iLFk and NHSM media) is reported as “improved”.

In the case of insulin, the “hypoblast formation during outgrowth culture” value (addition of 20 μg/ml to the medium) is reported as “not observed”.

For `COc1cccc(-c2cn(-c3ccc(CCN4CCC(O)CC4)cc3)c3ncnc(N)c23)c1` [CGP77675], the “effect on derivation efficiency on substitution in t2iLGöY media” value was “negative effect”.

In the case of `O=C(NOC[C@H](O)CO)c1ccc(F)c(F)c1Nc1ccc(I)cc1F` [PD0325901], the “derivation efficiency when withdrawn from media” value (MEK inhibitor withdrawn, embryo cavity formation) is reported as “decreased”.

B1: bovine IL-6: bovine IL-6, a member of the LIF superfamily (protein, UniProt P26892 30-208, looked up)
Interleukin-6: GPLGEDFKNDTTPGRLLLTTPEKTEALIKRMVDKISAMRKEICEKNDECESSKETLAENKLNLPKMEEKDGCFQSGFNQAICLIRTTAGLLEYQIYLDYLQNEYEGNQENVRDLRKNIRTLIQILKQKIADLITTPATNTDLLEKMQSSNEWVKNAKIILILRNLENFLQFSLRAIRMK
B1 was tested, and the “effect on derivation efficiency on substitution in t2iLGöY media” value was “negative effect”.
